Measured values from PMC6350255 (Journal of medicinal chemistry, 2018).
Entries after “also recorded” stand apart in the source; their conditions may differ.

Legend:
[1] = tested on: human β-cells (dispersed human pancreatic islets); format: cell-based; details: for human β-cell proliferation in words, dose response / overall: doses of 3–30 μM
[2] = tested on: human β-cells
[3] = tested on: NFAT2-GFP nuclear translocation in R7T1 rat beta cell line; assay: NFAT2 translocation assay; format: cell-based; details: 10 μM, 24 h

SMILES	human β-cell proliferation in words, dose response / overall [1]	beta cell toxicity [2]	NFAT2 translocation to nucleus [3]	human β-cell proliferation, Ki-67 immunolabeling ([1]; 10 μM, 96 h)
COc1ccc2c(c1)[nH]c1c(Cl)nccc12 [1–5, 1-Chloro-7-methoxy-9H-β-carboline]	comparable to that of harmine	–	–	–
COc1ccc2c(c1)[nH]c1c(C)nc(CO)cc12 [2–8, (1-Methyl-7-methoxy-9H-pyrido[3,4-b]indol-3-yl)methanol]	excellent human β-cell proliferation; also recorded: caused proliferation in a dose-dependent manner; also recorded: superior human β-cell proliferation at a lower dose as compared to 2–2; also recorded: comparable to that of harmine	did not cause toxicity	drove NFAT2 translocation	comparable to that of harmine
COc1ccc2c(c1)[nH]c1c(CO)nccc12 [Compound 2–2, 1-Hydroxymethyl-7-methoxy-9H-β-carboline]	–	did not cause toxicity	drove NFAT2 translocation	–
COc1ccc2c(c1)[nH]c1c(C(C)=O)nccc12 [Compound 3–2, 1-Acetyl-7-methoxy-9H-β-carboline]	comparable to that of harmine	–	–	–
